Measurements published in ChEMBL document CHEMBL1201862, “PubChem BioAssay data set” (2004).
Active and inactive are the calls of the source.

Experiments:
[1] = viability of uninfected HEp-2 cells – cell-based, HTS, cytotoxicity control for RSV inhibitor project, dose response (AID 2410); format: functional; conditions: human respiratory syncytial virus
[2] = molecular target: T1, RNA-binding protein pos-1 (Caenorhabditis elegans, UniProt G5EF15); experiment: disruptors of C. elegans POS-1 RNA interaction – biochemical, fluorescence polarization, dose response (AID 1964);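 further: purified POS-1 fused to maltose binding protein made in E. coli; potency of compounds blocking POS-1 binding to fluorescent RNA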
T1 sequence (G5EF15 whole entry): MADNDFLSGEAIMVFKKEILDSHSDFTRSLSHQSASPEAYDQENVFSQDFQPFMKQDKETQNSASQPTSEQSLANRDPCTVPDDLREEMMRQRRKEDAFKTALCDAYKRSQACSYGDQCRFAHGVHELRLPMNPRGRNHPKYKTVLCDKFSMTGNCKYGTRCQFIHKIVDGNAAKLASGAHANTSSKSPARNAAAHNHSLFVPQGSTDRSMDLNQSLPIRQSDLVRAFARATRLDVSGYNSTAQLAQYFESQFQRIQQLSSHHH

[3] = molecular target: T2, Zinc finger protein mex-5 (Caenorhabditis elegans, UniProt Q9XUB2); experiment: potency of MEX-5 RNA-binding blockers – biochemical, C. elegans, fluorescence polarization, dose response (AID 1960)
T2 sequence (Q9XUB2 whole entry): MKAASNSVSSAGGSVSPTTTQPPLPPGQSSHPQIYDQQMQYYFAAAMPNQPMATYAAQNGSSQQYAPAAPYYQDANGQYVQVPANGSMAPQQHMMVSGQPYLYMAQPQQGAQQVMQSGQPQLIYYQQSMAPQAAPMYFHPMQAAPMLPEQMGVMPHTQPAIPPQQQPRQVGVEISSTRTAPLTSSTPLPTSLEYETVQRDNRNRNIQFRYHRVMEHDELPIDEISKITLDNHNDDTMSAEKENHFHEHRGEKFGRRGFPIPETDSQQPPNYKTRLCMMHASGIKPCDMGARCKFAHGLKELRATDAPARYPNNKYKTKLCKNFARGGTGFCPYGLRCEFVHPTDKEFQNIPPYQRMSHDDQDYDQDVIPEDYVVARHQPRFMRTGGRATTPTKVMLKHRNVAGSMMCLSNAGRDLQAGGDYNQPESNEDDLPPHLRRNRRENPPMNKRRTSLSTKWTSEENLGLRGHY

Streptokinase A = molecular target: T3, Streptokinase A (Streptococcus pyogenes serotype M1, UniProt P10520); experiment: viability-normalized secreted streptokinase activity reduction – plasminogen activation absorbance, OD405, dose response (AID 1914); format: functional, Streptococcus pyogenes M1 GAS;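 further: secreted streptokinase activity via plasminogen activation per viability signal from cell pellet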
T3 sequence (P10520 whole entry): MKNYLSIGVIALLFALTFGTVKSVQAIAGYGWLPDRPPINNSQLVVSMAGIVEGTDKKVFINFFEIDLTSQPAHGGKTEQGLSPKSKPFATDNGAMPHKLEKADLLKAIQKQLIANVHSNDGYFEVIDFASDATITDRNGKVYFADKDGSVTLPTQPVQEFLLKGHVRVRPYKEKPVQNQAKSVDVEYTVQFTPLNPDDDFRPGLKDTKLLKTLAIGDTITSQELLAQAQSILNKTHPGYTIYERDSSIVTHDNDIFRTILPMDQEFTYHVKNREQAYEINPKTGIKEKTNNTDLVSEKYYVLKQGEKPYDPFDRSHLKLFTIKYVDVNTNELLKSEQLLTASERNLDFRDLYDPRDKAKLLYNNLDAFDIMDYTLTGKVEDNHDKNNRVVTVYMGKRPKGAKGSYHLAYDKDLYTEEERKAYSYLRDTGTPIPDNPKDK

Streptococcus = experiment: GAS UMAA2166 growth inhibition – luminescence, BacTiterGlo, counter-screen for streptokinase expression inhibitor project, dose response (AID 1915); format: functional, organism-based;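 further: potency for reduction of bacterial viability or growth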
[4] = system: Streptococcus sp. 'group A'; experiment: Streptococcus pyogenes SK(-)GAS viability under kanamycin – luminescence, BacTiterGlo, confirmation, counter-screen for streptokinase expression inhibitor project, dose response (AID 1900); format: functional, organism-based
[5] = alpha-synuclein stem-loop luciferase translation blockers – H4 neuroglioma cells, luminescence, confirmation (AID 1988); format: functional, cell-based
[6] = Luminescence Cell-Based Dose Response HTS to Identify Inhibitors of 5'UTR Stem-Loop Driven Prion Protein mRNA Translation in H4 Neuroglioblastoma Cells. [Related pubchem assays: 1827 (Project Summary), 1813 (Primary HTS)]; format: functional
[7] = luciferase reporter signal suppression in cells – H4 neuroglioma cells, luminescence, dose response (AID 1990); format: functional, cell-based
Cytochrome P450 2C9 = Cytochrome P450 2C9 (Homo sapiens, UniProt P11712)
Cytochrome P450 2C19 = Cytochrome P450 2C19 (Homo sapiens, UniProt P33261); experiment: Cytochrome panel assay with activity outcomes. Panel member name: p450-cyp2c19 Compounds with AC50 equal or less than 10 uM are considered active; format: functional; conditions: read-out: AC50
Cytochrome P450 2D6 = Cytochrome P450 2D6 (Homo sapiens, UniProt P10635);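 further: CYP2D6 member of a cytochrome P450 panel assay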
Cytochrome P450 3A4 = Cytochrome P450 3A4 (Homo sapiens, UniProt P08684);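 further: CYP3A4 tested as one member of a cytochrome P450 panel screen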
Cytochrome P450 1A2 = molecular target: T4, Cytochrome P450 1A2 (Homo sapiens, UniProt P05177);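 further: PubChem cytochrome P450 panel assay, CYP1A2 panel member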
T4 sequence (P05177 whole entry): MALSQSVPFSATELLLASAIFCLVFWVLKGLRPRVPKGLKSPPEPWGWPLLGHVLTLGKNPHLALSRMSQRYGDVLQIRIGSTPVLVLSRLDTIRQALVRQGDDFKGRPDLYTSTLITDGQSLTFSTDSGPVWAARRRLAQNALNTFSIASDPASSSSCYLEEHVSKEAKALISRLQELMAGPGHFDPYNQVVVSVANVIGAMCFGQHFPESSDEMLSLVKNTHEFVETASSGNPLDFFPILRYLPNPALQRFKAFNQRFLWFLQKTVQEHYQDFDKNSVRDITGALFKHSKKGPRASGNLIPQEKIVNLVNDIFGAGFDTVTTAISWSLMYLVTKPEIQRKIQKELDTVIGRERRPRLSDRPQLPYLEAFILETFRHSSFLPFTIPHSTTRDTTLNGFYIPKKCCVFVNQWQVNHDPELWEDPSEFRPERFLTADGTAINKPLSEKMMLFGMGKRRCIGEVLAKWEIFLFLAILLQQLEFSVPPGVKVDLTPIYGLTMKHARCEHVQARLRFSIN

Chain of Cytochrome P450 2C19 (P33261 whole entry): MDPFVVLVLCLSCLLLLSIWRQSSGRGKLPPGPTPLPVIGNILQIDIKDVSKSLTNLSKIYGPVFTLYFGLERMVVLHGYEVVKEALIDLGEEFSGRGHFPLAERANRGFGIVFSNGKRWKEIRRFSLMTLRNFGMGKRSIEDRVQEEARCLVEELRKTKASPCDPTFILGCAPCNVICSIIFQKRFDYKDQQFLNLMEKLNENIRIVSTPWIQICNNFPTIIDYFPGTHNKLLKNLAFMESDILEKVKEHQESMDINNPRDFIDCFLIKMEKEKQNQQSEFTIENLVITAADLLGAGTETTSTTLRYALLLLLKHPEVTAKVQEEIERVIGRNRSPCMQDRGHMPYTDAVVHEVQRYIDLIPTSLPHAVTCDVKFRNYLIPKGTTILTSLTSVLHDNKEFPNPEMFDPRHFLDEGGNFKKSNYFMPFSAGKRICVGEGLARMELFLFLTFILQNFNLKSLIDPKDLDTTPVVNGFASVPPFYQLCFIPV
Chain of Cytochrome P450 2C9 (P11712 whole entry): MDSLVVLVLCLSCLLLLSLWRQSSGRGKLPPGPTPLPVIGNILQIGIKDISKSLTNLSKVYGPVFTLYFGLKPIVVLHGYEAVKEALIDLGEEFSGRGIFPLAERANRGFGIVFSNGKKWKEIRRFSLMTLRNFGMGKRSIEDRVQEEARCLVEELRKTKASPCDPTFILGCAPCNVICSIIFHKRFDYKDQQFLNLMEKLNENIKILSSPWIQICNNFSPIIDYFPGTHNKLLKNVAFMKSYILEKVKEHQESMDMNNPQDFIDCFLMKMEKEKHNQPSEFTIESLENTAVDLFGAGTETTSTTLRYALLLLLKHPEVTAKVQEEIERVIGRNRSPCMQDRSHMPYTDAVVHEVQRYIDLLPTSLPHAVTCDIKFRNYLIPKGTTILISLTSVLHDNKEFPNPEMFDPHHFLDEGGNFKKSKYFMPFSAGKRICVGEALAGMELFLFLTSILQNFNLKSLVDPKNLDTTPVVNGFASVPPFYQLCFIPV
Chain of Cytochrome P450 2D6 (P10635 whole entry): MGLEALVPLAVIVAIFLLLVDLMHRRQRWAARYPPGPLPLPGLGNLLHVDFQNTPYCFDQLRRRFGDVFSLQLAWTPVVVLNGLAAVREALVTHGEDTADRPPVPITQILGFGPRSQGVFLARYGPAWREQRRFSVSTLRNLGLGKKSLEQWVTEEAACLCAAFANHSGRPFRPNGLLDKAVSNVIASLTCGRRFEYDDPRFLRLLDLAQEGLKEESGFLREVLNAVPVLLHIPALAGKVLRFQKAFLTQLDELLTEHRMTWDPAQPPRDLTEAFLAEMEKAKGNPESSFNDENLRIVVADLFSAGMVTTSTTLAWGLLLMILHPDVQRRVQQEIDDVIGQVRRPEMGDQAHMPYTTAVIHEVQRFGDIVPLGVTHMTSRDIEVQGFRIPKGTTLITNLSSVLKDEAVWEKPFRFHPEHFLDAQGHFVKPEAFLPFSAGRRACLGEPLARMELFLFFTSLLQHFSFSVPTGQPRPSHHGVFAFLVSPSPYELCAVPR
Chain of Cytochrome P450 3A4 (P08684 whole entry): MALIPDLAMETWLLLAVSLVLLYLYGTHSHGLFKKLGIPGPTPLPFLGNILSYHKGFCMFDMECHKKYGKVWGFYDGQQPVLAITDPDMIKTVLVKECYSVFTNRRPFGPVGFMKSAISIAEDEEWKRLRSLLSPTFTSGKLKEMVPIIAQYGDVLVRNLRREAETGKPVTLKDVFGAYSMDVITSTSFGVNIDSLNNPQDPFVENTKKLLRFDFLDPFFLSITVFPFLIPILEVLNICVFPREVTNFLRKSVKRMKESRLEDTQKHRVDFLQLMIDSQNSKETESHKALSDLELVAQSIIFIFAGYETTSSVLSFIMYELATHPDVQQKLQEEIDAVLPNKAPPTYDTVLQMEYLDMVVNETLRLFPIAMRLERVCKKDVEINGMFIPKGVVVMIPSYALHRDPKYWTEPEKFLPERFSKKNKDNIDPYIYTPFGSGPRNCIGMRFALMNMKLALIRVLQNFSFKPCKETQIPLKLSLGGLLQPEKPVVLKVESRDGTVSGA

C/C(CCc1oc2ccc(Cl)cc2c1-c1ccc(C)o1)=N\O
CC50 [1]: 37.9 µM (active)
EC50 [2]: > 300 µM (not active)
EC50 [3]: > 300 µM (not active)

COc1ccc(C=C2C(=O)OC(C)(C)OC2=O)cc1OC
EC50 [2]: > 300 µM (not active)
EC50 [3]: > 300 µM (not active)

COC(=O)[C@H]1[C@H](CCc2ccccc2)NC(=O)N(Cc2ccccc2)[C@@H]1C
EC50 (Streptokinase A): > 150 µM (not active)
EC50 (Streptococcus): > 150 µM (not active)

COc1cccc(NC(=O)c2ccccc2Br)c1
EC50 [2]: > 300 µM (not active)
EC50 [3]: > 300 µM (not active)

COc1ccc2c(c1)c(CC(=O)Nc1cccc(S(N)(=O)=O)c1)c(C)n2C(=O)c1ccc(Cl)cc1
EC50 (Streptokinase A): > 150 µM (not active)
EC50 (Streptococcus): > 50 µM (not active)
EC50 [4]: 5.48 µM (active)

O=C(CN(Cc1ccc(F)cc1)C(=O)C1CSC(=O)C1)NC1CCCCC1 (centres undefined)
EC50 [5]: > 120 µM (not active)
EC50 [6]: > 120 µM (not active)
EC50 [7]: > 120 µM (not active)

CCC1CN(C(=O)N2CCC(C(=O)NCc3ccc(C)o3)CC2)c2ccccc2O1 (centres undefined)
EC50 [5]: > 120 µM (not active)
EC50 [6]: > 120 µM (not active)
EC50 [7]: > 120 µM (not active)

C1CCCCCC2(CCCCC1)OCC(CN1CCOCC1)O2 (centres undefined)
EC50 [5]: > 120 µM (not active)
EC50 [6]: > 120 µM (not active)
EC50 [7]: > 120 µM (not active)

Cc1c(N/C=C2\C(=O)NC(=O)N(Cc3ccco3)C2=O)c(=O)n(-c2ccccc2)n1C
EC50 [2]: > 300 µM (not active)
EC50 [3]: > 300 µM (not active)

O=C(CN1CCOCC1)Nc1cccc(Cl)c1Cl
EC50 [5]: > 120 µM (not active)
EC50 [7]: > 120 µM (not active)

COc1ccc(N2C(N)=NC(N)=NC2(C)C)cc1
EC50 [5]: 7.02 µM (active)
EC50 [6]: > 120 µM (not active)
EC50 [7]: 10 µM (active)

CCCN1CC=C2C(C#N)=C(N)C(C#N)(C#N)C(c3cc(OC)ccc3OC)C2C1 (centres undefined)
EC50 [2]: 27.9 µM (active)
AC50 (Cytochrome P450 2C9): 7.94 µM (inconclusive)
AC50 (Cytochrome P450 2C19): 14.1 µM (inconclusive)
EC50 [3]: 25.5 µM (active)
AC50 (Cytochrome P450 2D6): 15.8 µM (inconclusive)

COc1ccc(O)c2c(=O)c3c(OC)cc4c(c3oc12)C1C=COC1O4 (centres undefined)
EC50 [6]: 19.6 µM (active)

O=C(CN1C(=O)COc2ccc(S(=O)(=O)N3CCCCC3)cc21)NCc1ccc(F)cc1
EC50 (Streptokinase A): > 150 µM (not active)
EC50 (Streptococcus): > 150 µM (not active)
EC50 [4]: > 150 µM (not active)

CC(C)(O)c1[nH]c2cc(F)ccc2c1C(C)(C)O
EC50 (Streptokinase A): > 150 µM (not active)
EC50 (Streptococcus): 8.02 µM (active)
EC50 [4]: 2.05 µM (active)

COc1ccc2c(c1)C1C=CCC1C(c1cc3c(cc1Br)OCO3)N2 (centres undefined)
EC50 [2]: > 300 µM (not active)
EC50 [3]: 47.9 µM (active)

CC1C2(C)OC(=N)C(C#N)(C(C)O2)C1(C#N)C#N (centres undefined)
EC50 [2]: > 300 µM (not active)
EC50 [3]: 16 µM (active)

COc1cccc(/C=N/n2c(N)nc3ccccc32)c1OC
EC50 (Streptokinase A): > 150 µM (not active)
EC50 (Streptococcus): > 150 µM (not active)
EC50 [4]: > 150 µM (not active)

CC/C(=N\NC(=S)Nc1cccc(C)c1)c1ccccc1
EC50 (Streptokinase A): 21.3 µM (active)
EC50 (Streptococcus): > 50 µM (not active)
EC50 [4]: 12.3 µM (active)

C/C(=N/NS(=O)(=O)c1ccc(Cl)cc1)c1cccc(NC(=O)c2ccc(Cl)cc2Cl)c1
EC50 (Streptokinase A): 23.4 µM (active)
EC50 (Streptococcus): 47.6 µM (active)
EC50 [4]: 3.99 µM (active)

COc1ccc(/C=C/C(=O)NC(=S)NNC(=O)c2ccco2)cc1OC
EC50 (Streptokinase A): > 150 µM (not active)
EC50 (Streptococcus): 25.4 µM (active)
EC50 [4]: 3.65 µM (active)

CSC(=Nc1cccc(Cl)c1C)NS(=O)(=O)c1cccs1
EC50 [2]: > 300 µM (not active)
EC50 [3]: > 300 µM (not active)

COc1ccc(C(=O)/N=C2\SC3CS(=O)(=O)CC3N2Cc2ccccc2)cc1OC (centres undefined)
EC50 [5]: > 120 µM (not active)
EC50 [6]: 25.4 µM (active)
EC50 [7]: 26.2 µM (active)

C=CCn1cc(C=C2C(=O)NC(=O)NC2=O)c2ccccc21
EC50 [2]: > 300 µM (not active)
EC50 [3]: 112 µM (inconclusive)

O=C(C1CCC(=O)N1Cc1ccccc1Cl)N1CCN(c2ccc(F)cc2)CC1 (centres undefined)
AC50 (Cytochrome P450 3A4): 12.6 µM (inconclusive)
AC50 (Cytochrome P450 2C9): 25.1 µM (inconclusive)
AC50 (Cytochrome P450 2C19): 20 µM (inconclusive)
AC50 (Cytochrome P450 1A2): 2.51 µM (inconclusive)
AC50 (Cytochrome P450 2D6): 15.8 µM (inconclusive)

CCCCC1=CC2=C(c3ccco3)C(=O)C(C)(OC(=O)c3ccc(OC)cc3)C(=O)C2=CN1CCN1CCOCC1 (centres undefined)
EC50 [2]: 95.7 µM (active)
EC50 [3]: 42.2 µM (active)

COc1ccc(OC)c(S(=O)(=O)NC2CCN(Cc3ccccc3)CC2)c1
EC50 [2]: > 300 µM (not active)
EC50 [3]: > 300 µM (not active)

O=C(NCC1CCCO1)c1ccc(CS(=O)(=O)Cc2ccc(F)cc2)o1 (centres undefined)
EC50 [2]: > 300 µM (not active)
AC50 (Cytochrome P450 2C19): 39.8 µM (inconclusive)
EC50 [3]: > 300 µM (not active)

CN(Cc1ccc(OC(F)F)cc1)Cc1nc2c(Br)cc(Br)cc2c(=O)[nH]1
EC50 (Streptokinase A): 29.4 µM (active)

CC1C(=O)C(C)C(c2ccc(Cl)cc2)NC1c1ccc(Cl)cc1 (centres undefined)
EC50 [5]: 17.1 µM (active)
EC50 [6]: 15.7 µM (active)
EC50 [7]: 13.8 µM (active)

O/C(=C(\C([S-])=NCc1ccco1)[n+]1ccccc1)c1ccccc1Br
EC50 [2]: > 300 µM (not active)
EC50 [3]: 58.4 µM (active)

Cc1cccc(C)c1NC(=O)NN=C1CCCCC1
EC50 [2]: > 300 µM (not active)
EC50 [3]: > 300 µM (not active)

Cc1cc(C)c(S(=O)(=O)N(C)CC(=O)NC2CCCC2)c(C)c1
EC50 [5]: > 120 µM (not active)
EC50 [6]: > 120 µM (not active)
EC50 [7]: > 120 µM (not active)

CC(C)(C)c1ccc(OCc2ccc(C(=O)Nc3cccnc3)o2)cc1
EC50 [2]: > 300 µM (not active)
EC50 [3]: > 300 µM (not active)

Cc1cc(/C=C2\C(=O)NC(=O)N(c3ccc(F)cc3)C2=O)c(C)n1-c1ccc(C(=O)O)cc1
EC50 [2]: > 300 µM (not active)
EC50 [3]: > 300 µM (not active)

CCOC(=O)c1c(-n2c(C)cc(/C=C3/C(=O)NC(=O)N(CC)C3=O)c2C)sc2c1CCCC2
EC50 [2]: 25.1 µM (active)
EC50 [3]: 29.8 µM (active)

Cn1ncc2c(NNC(=O)Cc3ccccc3)ncnc21
EC50 [2]: > 300 µM (not active)
EC50 [3]: 10.5 µM (active)
